Experimental data published in PubChem BioAssay (NCI).
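GI50 is the concentration that inhibits growth by half. TGI denotes the concentration required for complete inhibition of growth.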

How the values were obtained:
Assay in all cases: inhibition of tumour cell growth, NCI panel, 384-well format
MDA-MB-468 breast = test system: MDA-MB-468 breast
NCI/ADR-RES ovarian = test system: NCI/ADR-RES ovarian
RXF 393 renal = test system: RXF 393 renal
A498 renal = test system: A498 renal
SF-268 CNS = test system: SF-268 CNS
UO-31 renal = test system: UO-31 renal
SK-MEL-5 melanoma = test system: SK-MEL-5 melanoma
COLO 205 colon = test system: COLO 205 colon
LOX IMVI melanoma = test system: LOX IMVI melanoma
TK-10 renal = test system: TK-10 renal
HCC-2998 colon = test system: HCC-2998 colon
SK-MEL-2 melanoma = test system: SK-MEL-2 melanoma
M14 melanoma = test system: M14 melanoma
OVCAR-8 ovarian = test system: OVCAR-8 ovarian
HOP-62 NSCLC = test system: HOP-62 NSCLC
MOLT-4 leukemia = test system: MOLT-4 leukemia
OVCAR-3 ovarian = test system: OVCAR-3 ovarian
MDA-MB-231 breast = test system: MDA-MB-231 breast
U251 glioblastoma = test system: U251 glioblastoma
MDA-MB-435 melanoma = test system: MDA-MB-435 melanoma
786-0 renal = test system: 786-0 renal
SF-295 CNS = test system: SF-295 CNS
OVCAR-4 ovarian = test system: OVCAR-4 ovarian
SN12C renal = test system: SN12C renal
SF-539 CNS = test system: SF-539 CNS
HL-60(TB) leukemia = test system: HL-60(TB) leukemia
CCRF-CEM leukemia = test system: CCRF-CEM leukemia
IGROV1 ovarian = test system: IGROV1 ovarian
SNB-19 CNS = test system: SNB-19 CNS
NCI-H226 lung = test system: NCI-H226 lung
NCI-H23 lung = test system: NCI-H23 lung
NCI-H522 lung = test system: NCI-H522 lung
UACC-257 melanoma = test system: UACC-257 melanoma
SK-MEL-28 melanoma = test system: SK-MEL-28 melanoma
SK-OV-3 ovarian = test system: SK-OV-3 ovarian
KM12 colon = test system: KM12 colon
RPMI-8226 leukemia = test system: RPMI-8226 leukemia
UACC-62 melanoma = test system: UACC-62 melanoma
SR leukemia = test system: SR leukemia
NCI-H460 NSCLC = test system: NCI-H460 NSCLC
HCT-15 colon = test system: HCT-15 colon
HT29 colon = test system: HT29 colon
BT-549 breast = test system: BT-549 breast
MALME-3M melanoma = test system: MALME-3M melanoma
NCI-H322M lung = test system: NCI-H322M lung

COc1ncnn2ccc(-c3cnc4nc(C)n(Cc5nnc(C(C)F)o5)c4c3)c12 (stereo not given)
GI50 (MDA-MB-468 breast): 17.6 nM
TGI (MDA-MB-468 breast): 43.4 nM
GI50 (NCI/ADR-RES ovarian): 154 nM
TGI (NCI/ADR-RES ovarian): 415 nM
GI50 (RXF 393 renal): 56 nM
TGI (RXF 393 renal): 188 nM
GI50 (A498 renal): 42.6 nM
TGI (A498 renal): 187 nM
GI50 (SF-268 CNS): 133 nM
TGI (SF-268 CNS): 400 nM
GI50 (UO-31 renal): 103 nM
TGI (UO-31 renal): 270 nM
GI50 (SK-MEL-5 melanoma): 15.4 nM
TGI (SK-MEL-5 melanoma): 45 nM
GI50 (COLO 205 colon): 26.8 nM
TGI (COLO 205 colon): 67.5 nM
GI50 (LOX IMVI melanoma): 58.3 nM
TGI (LOX IMVI melanoma): 161 nM
GI50 (TK-10 renal): 44.7 nM
TGI (TK-10 renal): 261 nM
GI50 (HCC-2998 colon): 41.1 nM
TGI (HCC-2998 colon): 196 nM
GI50 (SK-MEL-2 melanoma): 29.4 nM
TGI (SK-MEL-2 melanoma): 77.2 nM
GI50 (M14 melanoma): 185 nM
TGI (M14 melanoma): 334 nM
GI50 (OVCAR-8 ovarian): 40.2 nM
TGI (OVCAR-8 ovarian): 256 nM
GI50 (HOP-62 NSCLC): 27.5 nM
TGI (HOP-62 NSCLC): 122 nM
GI50 (MOLT-4 leukemia): 18.5 nM
TGI (MOLT-4 leukemia): 33.4 nM
GI50 (OVCAR-3 ovarian): 17.2 nM
TGI (OVCAR-3 ovarian): 41.4 nM
GI50 (MDA-MB-231 breast): 77.9 nM
TGI (MDA-MB-231 breast): 415 nM
GI50 (U251 glioblastoma): 43.2 nM
TGI (U251 glioblastoma): 338 nM
GI50 (MDA-MB-435 melanoma): 67.3 nM
TGI (MDA-MB-435 melanoma): 236 nM
GI50 (786-0 renal): 116 nM
TGI (786-0 renal): 252 nM
GI50 (SF-295 CNS): 110 nM
TGI (SF-295 CNS): 307 nM
GI50 (OVCAR-4 ovarian): 57.2 nM
TGI (OVCAR-4 ovarian): 215 nM
GI50 (SN12C renal): 43.5 nM
TGI (SN12C renal): 215 nM
GI50 (SF-539 CNS): 126 nM
TGI (SF-539 CNS): 286 nM
GI50 (HL-60(TB) leukemia): 51.5 nM
TGI (HL-60(TB) leukemia): 156 nM
GI50 (CCRF-CEM leukemia): 21.1 nM
TGI (CCRF-CEM leukemia): 41.9 nM
GI50 (IGROV1 ovarian): 26.5 nM
TGI (IGROV1 ovarian): 135 nM
GI50 (SNB-19 CNS): 37.1 nM
TGI (SNB-19 CNS): > 100000 nM
GI50 (NCI-H226 lung): 117 nM
TGI (NCI-H226 lung): 283 nM
GI50 (NCI-H23 lung): 19.7 nM
TGI (NCI-H23 lung): 46.9 nM
GI50 (NCI-H522 lung): 14.8 nM
TGI (NCI-H522 lung): 52 nM
GI50 (UACC-257 melanoma): 20.1 nM
TGI (UACC-257 melanoma): 56.6 nM
GI50 (SK-MEL-28 melanoma): 51.9 nM
TGI (SK-MEL-28 melanoma): 184 nM
GI50 (SK-OV-3 ovarian): 28.7 nM
TGI (SK-OV-3 ovarian): 132 nM
GI50 (KM12 colon): 24.8 nM
TGI (KM12 colon): 95.5 nM
GI50 (RPMI-8226 leukemia): 40.5 nM
TGI (RPMI-8226 leukemia): 95.8 nM
GI50 (UACC-62 melanoma): 24.9 nM
TGI (UACC-62 melanoma): 80.7 nM
GI50 (SR leukemia): 15.5 nM
TGI (SR leukemia): 29.4 nM
GI50 (NCI-H460 NSCLC): 42.6 nM
TGI (NCI-H460 NSCLC): 163 nM
GI50 (HCT-15 colon): 33 nM
TGI (HCT-15 colon): 147 nM
GI50 (HT29 colon): 142 nM
TGI (HT29 colon): 284 nM
GI50 (BT-549 breast): 16.9 nM
TGI (BT-549 breast): 49.9 nM
GI50 (MALME-3M melanoma): 95.6 nM
TGI (MALME-3M melanoma): 223 nM
GI50 (NCI-H322M lung): 82.2 nM
TGI (NCI-H322M lung): 815 nM
